Legend:
HeLa [1] = experiment: Cytotoxicity against human HeLa cells assessed as viable cells after 24 hrs by MTT assay; type: functional, cell-based
HeLa [2] = experiment: Cytotoxicity against human HeLa cells assessed as viable cells after 48 hrs by MTT assay; type: functional, cell-based
[3] = Cytotoxicity against human DU145 cells assessed as viable cells after 24 hrs by MTT assay; type: functional, cell-based; settings: DU-145, 24 h
[4] = Cytotoxicity against human DU145 cells assessed as viable cells after 48 hrs by MTT assay; type: functional, cell-based; settings: DU-145, 48 h
MCF7 [5] = experiment: Cytotoxicity against human MCF7 cells assessed as viable cells after 24 hrs by MTT assay; type: functional, cell-based; settings: MCF7, 24 h
MCF7 [6] = experiment: Cytotoxicity against human MCF7 cells assessed as viable cells after 48 hrs by MTT assay; type: functional, cell-based; settings: MCF7, 48 h
[7] = Cytotoxicity against human DU145 cells assessed as growth inhibition at 1.25 uM after 24 hrs by MTT assay (reference value: 1.2 to 7.8%); type: functional; settings: DU-145, 24 h, read-out: GI
[8] = Cytotoxicity against human DU145 cells assessed as growth inhibition at 2.5 uM after 24 hrs by MTT assay (reference value: 1.2 to 7.8%); type: functional; settings: DU-145, 24 h, read-out: GI
[9] = Cytotoxicity against human DU145 cells assessed as growth inhibition at 5 uM after 24 hrs by MTT assay (reference value: 1.2 to 7.8%); type: functional; settings: DU-145, 24 h, read-out: GI
[10] = Cytotoxicity against human DU145 cells assessed as growth inhibition at 10 uM after 24 hrs by MTT assay (reference value: 1.2 to 7.8%); type: functional; settings: DU-145, 24 h, read-out: GI
[11] = Cytotoxicity against human DU145 cells assessed as growth inhibition at 25 uM after 24 hrs by MTT assay (reference value: 1.2 to 7.8%); type: functional; settings: DU-145, 24 h, read-out: GI
[12] = Cytotoxicity against human DU145 cells assessed as growth inhibition at 50 uM after 24 hrs by MTT assay (reference value: 1.2 to 7.8%); type: functional; settings: DU-145, 24 h, read-out: GI
[13] = Cytotoxicity against human DU145 cells assessed as growth inhibition at 100 uM after 24 hrs by MTT assay (reference value: 1.2 to 7.8%); type: functional; settings: DU-145, 24 h, read-out: GI
HeLa [14] = experiment: Cytotoxicity against human HeLa cells assessed as growth inhibition at 1.25 uM after 24 hrs by MTT assay (reference value: 0 to 4.4%); type: functional; settings: read-out: GI
HeLa [15] = experiment: Cytotoxicity against human HeLa cells assessed as growth inhibition at 2.5 uM after 24 hrs by MTT assay (reference value: 0 to 4.4%); type: functional; settings: read-out: GI
HeLa [16] = experiment: Cytotoxicity against human HeLa cells assessed as growth inhibition at 5 uM after 24 hrs by MTT assay (reference value: 0 to 4.4%); type: functional; settings: read-out: GI
HeLa [17] = experiment: Cytotoxicity against human HeLa cells assessed as growth inhibition at 10 uM after 24 hrs by MTT assay (reference value: 0 to 4.4%); type: functional; settings: read-out: GI
HeLa [18] = experiment: Cytotoxicity against human HeLa cells assessed as growth inhibition at 25 uM after 24 hrs by MTT assay (reference value: 0 to 4.4%); type: functional; settings: read-out: GI
HeLa [19] = experiment: Cytotoxicity against human HeLa cells assessed as growth inhibition at 50 uM after 24 hrs by MTT assay (reference value: 0 to 4.4%); type: functional; settings: read-out: GI
HeLa [20] = experiment: Cytotoxicity against human HeLa cells assessed as growth inhibition at 100 uM after 24 hrs by MTT assay (reference value: 0 to 4.4%); type: functional; settings: read-out: GI
MCF7 [21] = experiment: Cytotoxicity against human MCF7 cells assessed as growth inhibition at 1.25 uM after 24 hrs by MTT assay (reference value: 2.7 to 9.3%); type: functional; settings: MCF7, 24 h, read-out: GI
MCF7 [22] = experiment: Cytotoxicity against human MCF7 cells assessed as growth inhibition at 2.5 uM after 24 hrs by MTT assay (reference value: 2.7 to 9.3%); type: functional; settings: MCF7, 24 h, read-out: GI
MCF7 [23] = experiment: Cytotoxicity against human MCF7 cells assessed as growth inhibition at 5 uM after 24 hrs by MTT assay (reference value: 2.7 to 9.3%); type: functional; settings: MCF7, 24 h, read-out: GI
MCF7 [24] = experiment: Cytotoxicity against human MCF7 cells assessed as growth inhibition at 10 uM after 24 hrs by MTT assay (reference value: 2.7 to 9.3%); type: functional; settings: MCF7, 24 h, read-out: GI
MCF7 [25] = experiment: Cytotoxicity against human MCF7 cells assessed as growth inhibition at 25 uM after 24 hrs by MTT assay (reference value: 2.7 to 9.3%); type: functional; settings: MCF7, 24 h, read-out: GI
MCF7 [26] = experiment: Cytotoxicity against human MCF7 cells assessed as growth inhibition at 50 uM after 24 hrs by MTT assay (reference value: 2.7 to 9.3%); type: functional; settings: MCF7, 24 h, read-out: GI
MCF7 [27] = experiment: Cytotoxicity against human MCF7 cells assessed as growth inhibition at 100 uM after 24 hrs by MTT assay (reference value: 2.7 to 9.3%); type: functional; settings: MCF7, 24 h, read-out: GI
HeLa [28] = experiment: Cytotoxicity against human HeLa cells assessed as growth inhibition at 5 uM by MTT assay; type: functional, cell-based; settings: TDE = time-dependent effect
HeLa [29] = experiment: Cytotoxicity against human HeLa cells assessed as growth inhibition at 5 uM after 48 hrs by MTT assay; type: functional; settings: read-out: GI
[30] = Cytotoxicity against human DU145 cells assessed as viable cells after 24 hrs by Solid plate-based spot culture growth inhibition assay; type: functional, cell-based; settings: DU-145, 24 h
MCF7 [31] = experiment: Cytotoxicity against human MCF7 cells assessed as viable cells after 24 hrs by Solid plate-based spot culture growth inhibition assay; type: functional, cell-based; settings: MCF7, 24 h

| Compound | IC50 (HeLa [1]) | IC50 (HeLa [2]) | IC50 [3] | IC50 [4] | IC50 (MCF7 [5]) | IC50 (MCF7 [6]) | inhibition of growth at 1.25 µM [7] | inhibition of growth at 2.5 µM [8] | inhibition of growth at 5 µM [9] | inhibition of growth at 10 µM [10] | inhibition of growth at 25 µM [11] | inhibition of growth at 50 µM [12] | inhibition of growth at 100 µM [13] | inhibition of growth at 1.25 µM (HeLa [14]) | inhibition of growth at 2.5 µM (HeLa [15]) | inhibition of growth at 5 µM (HeLa [16]) | inhibition of growth at 10 µM (HeLa [17]) | inhibition of growth at 50 µM (HeLa [19]) | inhibition of growth at 100 µM (HeLa [20]) | inhibition of growth at 1.25 µM (MCF7 [21]) | also measured |
| --- | --- | --- | --- | --- | --- | --- | --- | --- | --- | --- | --- | --- | --- | --- | --- | --- | --- | --- | --- | --- | --- |
| CO/N=C(\Cc1cc(Br)c(OC)c(Br)c1)C(=O)NCCCNCCCCNCCCNC(=O)/C(Cc1cc(Br)c(OC)c(Br)c1)=N/OC | 26.3 µM | 25 µM | 26.2 µM | 27.7 µM | 24.8 µM | 19.1 µM | 24.6% | 24.1% | 26.1% | 34.3% | 55% | 99.2% | 98.7% | 0% | 0% | 0% | 20.2% | 97.8% | 97.4% | 15.4% | inhibition of growth at 25 µM (HeLa [18]): 70.4%; inhibition of growth at 2.5 µM (MCF7 [22]): 20.8%; inhibition of growth at 5 µM (MCF7 [23]): 22.3%; inhibition of growth at 10 µM (MCF7 [24]): 33.1%; inhibition of growth at 25 µM (MCF7 [25]): 55.5%; inhibition of growth at 50 µM (MCF7 [26]): 98.4%; inhibition of growth at 100 µM (MCF7 [27]): 98.1% |
| COc1c(Br)cc(C/C(=N\OCc2ccccc2)C(=O)NCCCCCNC(=O)/C(Cc2cc(Br)c(OC)c(Br)c2)=N/OCc2ccccc2)cc1Br | > 100 µM | > 100 µM | > 100 µM | > 100 µM | > 100 µM | > 100 µM | – | – | – | – | – | – | – | – | – | – | – | – | – | – | – |
| COc1c(Br)cc(C/C(=N\OCc2ccccc2)C(=O)NCCNCCNC(=O)/C(Cc2cc(Br)c(OC)c(Br)c2)=N/OCc2ccccc2)cc1Br | > 100 µM | > 100 µM | > 100 µM | > 100 µM | > 100 µM | > 100 µM | – | – | – | – | – | – | – | – | – | – | – | – | – | – | – |
| CO/N=C(\Cc1cc(Br)c(OC)c(Br)c1)C(=O)NCCCCCNC(=O)/C(Cc1cc(Br)c(OC)c(Br)c1)=N/OC | > 100 µM | > 100 µM | > 100 µM | > 100 µM | > 100 µM | > 100 µM | – | – | – | – | – | – | – | – | – | – | – | – | – | – | – |
| COc1c(Br)cc(C/C(=N\O)C(=O)NCCCCCNC(=O)/C(Cc2cc(Br)c(OC)c(Br)c2)=N/O)cc1Br | > 100 µM | > 100 µM | > 100 µM | > 100 µM | > 100 µM | > 100 µM | – | – | – | – | – | – | – | – | – | – | – | – | – | – | – |
| CO/N=C(\Cc1cc(Br)c(OC)c(Br)c1)C(=O)NCCNCCNC(=O)/C(Cc1cc(Br)c(OC)c(Br)c1)=N/OC | 25.8 µM | 10.8 µM | 25.8 µM | 27.9 µM | 27.1 µM | 30.9 µM | 19.9% | 21.3% | 22.1% | 20.2% | 26.7% | 99% | 95.6% | 11% | 4.8% | 0.1% | 24.5% | 95% | 97.1% | 11.4% | inhibition of growth at 25 µM (HeLa [18]): 80.1%; inhibition of growth at 2.5 µM (MCF7 [22]): 23.9%; inhibition of growth at 5 µM (MCF7 [23]): 20.3%; inhibition of growth at 10 µM (MCF7 [24]): 23%; inhibition of growth at 25 µM (MCF7 [25]): 46.2%; inhibition of growth at 50 µM (MCF7 [26]): 96.9%; inhibition of growth at 100 µM (MCF7 [27]): 96.9% |
| COc1c(Br)cc(C/C(=N\O)C(=O)NCCNCCNC(=O)/C(Cc2cc(Br)c(OC)c(Br)c2)=N/O)cc1Br | > 100 µM | > 100 µM | > 100 µM | > 100 µM | > 100 µM | > 100 µM | – | – | – | – | – | – | – | – | – | – | – | – | – | – | – |
| COc1c(Br)cc(C/C(=N\O)C(=O)NCCCNCCCCNCCCNC(=O)/C(Cc2cc(Br)c(OC)c(Br)c2)=N/O)cc1Br | > 100 µM | > 100 µM | > 100 µM | > 100 µM | > 100 µM | > 100 µM | – | – | – | – | – | – | – | – | – | – | – | – | – | – | growth inhibition (GI) (HeLa [28]): tde; inhibition of growth at 5 µM (HeLa [29]): 90% |
| COc1c(Br)cc(C/C(=N\OCc2ccccc2)C(=O)NCCCNCCCCNCCCNC(=O)/C(Cc2cc(Br)c(OC)c(Br)c2)=N/OCc2ccccc2)cc1Br | 4 µM | 2.9 µM | 4 µM | 4.6 µM | 4.5 µM | 3.4 µM | 15.5% | 24.4% | 68.2% | 98.5% | 98.6% | 98.4% | 97.3% | 0% | 23.5% | 93.5% | 98.3% | 96.9% | 94.7% | 19.2% | inhibition of growth at 2.5 µM (MCF7 [22]): 30%; inhibition of growth at 5 µM (MCF7 [23]): 58.6%; inhibition of growth at 10 µM (MCF7 [24]): 98.9%; inhibition of growth at 25 µM (MCF7 [25]): 97.6%; inhibition of growth at 50 µM (MCF7 [26]): 97.7%; inhibition of growth at 100 µM (MCF7 [27]): 96.4% |
| COc1c(Br)cc(C/C(=N\O)C(=O)NCCCN(C)CCCCN(C)CCCNC(=O)/C(Cc2cc(Br)c(OC)c(Br)c2)=N/O)cc1Br | – | – | – | – | – | – | – | – | – | – | – | – | – | – | – | – | – | – | – | – | IC50 [30]: 1.6 µM; IC50 (MCF7 [31]): 1.6 µM |

Source: ChEMBL document CHEMBL3774387, “Synthesis and anticancer evaluation of spermatinamine analogues” (Bioorg Med Chem Lett, 2016)
